The results in this text go back to US20110166144A1, “Pyrimidotriazinediones and Pyrimidopyrimidinediones and Methods of Using the Same” (THE REGENTS OF THE UNIVERSITY OF MICHIGAN, priority 2008, published 2011).

The first data set relates to IEC18 Rat Epithelial Cells (IEC18-S33Y).
Test: not given
Particulars: 17-20 h with compound, WST-1. The procedure:
Using the above assay system, IC50 and LD50 values were determined for the pyrimidotriazinedione compounds. IEC18-S33Y cells carrying a β-catenin firefly luciferase cassette and a constitutively active renilla luciferase cassette were seeded at 40,000 cells/well in 96-well tissue culture plates (BD Biosciences, Bedford, Mass.) in a total volume of 80 μL of tissue culture medium (Dulbecco's modified Eagle medium without Phenol-Red (Invitrogen, Carlsbad, Calif.) supplemented with 10% (v/v) fetal bovine serum (Hyclone, Logan, Utah)) and incubated for 24 h. […] Working solutions of the compounds were obtained by further diluting the stock solutions in tissue culture medium by at least 50-fold. Serial twofold dilutions of the working solutions of the compounds were added to the cells in a volume of 40 μL and the cells were incubated in the presence of the compounds for 17-20 h.
LD50 values of the pyrimidotriazinediones then were determined using a WST-1 colorimetric cell proliferation assay. A mixture containing 20 μL of medium and 10 μL of WST-1 reagent (available from Roche, Indianapolis, Ind.) was added to the cells and the cells were incubated for 1 h at 37° C., after which time absorption at 550 nm was measured using a microplate reader.
As to `CCN(CC)CCOc1ccc(-c2nnc3c(n2)c(=O)n(C)c(=O)n3Cc2ccc(F)c(F)c2)cc1` [Compound 10g, 3-(4-(2-(Diethylamino)ethoxy)phenyl)-8-(3,4-difluorobenzyl)-6-methylpyrimido[5,4-e][1,2,4]triazine-5,7(6H,8H)-dione], the LD50 is 2.57 ± 10.99 µM.

Test system in a further data set: not given
Test: not given
Settings: not given
Regarding `COc1ccc(-c2nnc3c(n2)c(=O)n(C)c(=O)n3Cc2ccc(F)cc2)cc1` [Compound 7j, 8-(4-Fluorobenzyl)-3-(4-methoxyphenyl)-6-methylpyrimido[5,4-e][1,2,4]triazine-5,7(6H,8H)-dione], the melting point was 230 to 234 °C (dec.). `Cc1ccc(Cn2c(=O)n(C)c(=O)c3nc(-c4ccccc4F)nnc32)cc1`: the melting point was 320 °C (dec.). Same read-out and setting: the same measure for `Cn1nc(-c2cccc([N+](=O)[O-])c2)nc2c(=O)n(C)c(=O)nc1-2`: 223 to 224 °C; for `CCCn1c(=O)n(C)c(=O)c2nc(-c3ccc(Cl)cc3)nnc21`: 202 to 205 °C. `Cn1c(=O)c2nc(-c3ccccc3)nnc2n(Cc2ccc(C(F)(F)F)cc2)c1=O`: the melting point is 225 to 227 °C (dec.).

As to `CN(C)c1ccc(-c2nc3c(=O)n(C)c(=O)nc-3n(CCO)n2)cc1` [Compound 8i, 3-(4-(Dimethylamino)phenyl)-1-(2-hydroxyethyl)-6-methylpyrimido[5,4-e][1,2,4]triazine-5,7(1H,6H)-dione], the melting point was 170 to 180 °C (dec.). The same measure, in the same setting: with `Cn1nc(-c2ccccc2F)nc2c(=O)[nH]c(=O)nc1-2` [Compound 17a, 3-(2-Fluorophenyl)-1-methylpyrimido[5,4-e][1,2,4]triazine-5,7(1H,6H)-dione] the figure was 240 to 247 °C (dec.); with `Cn1nc(-c2ccc([N+](=O)[O-])cc2)nc2c(=O)n(C)c(=O)nc1-2`, 220 to 223 °C; with `Cn1c(=O)nc2n(CCO)nc(-c3ccc(Cl)c(Cl)c3)nc-2c1=O`, 208 to 211 °C (dec.). Still for that read-out and setting: with `Cn1c(=O)c2nc(-c3ccc(Cl)cc3)nnc2n(Cc2ccccc2F)c1=O` the figure was 251 to 254 °C.

Test system in a further data set: not listed separately
Kind of data set: Pharmacokinetic properties in mice (plasma level by HPLC/MS). In kind it is in vivo. As to conditions: 10 mg/kg, plasma 1 minute to 12 hours post-injection. The method, then:
The pharmacokinetic properties of a substituted pyrimido[5,4-e][1,2,4]triazine-5,7(6H,8H)-dione of formula II (3-(4-(2-(Diethylamino)ethoxy)phenyl)-8-(3,4-difluorobenzyl)-6-methylpyrimido[5,4-e][1,2,4]triazine-5,7(6H,8H)-dione) in mice were determined by dosing a cohort of mice with 10 mg/kg compound. Blood was drawn from the mice at various time points (1 minute, 15 minutes, 30 minutes, 3 hours, 6 hours, and 12 hours) post-injection. The blood plasma was isolated from the drawn blood and the amount of compound present in the plasma was measured by HPLC with peak analysis by mass spectrometry.
With `CCN(CC)CCOc1ccc(-c2nnc3c(n2)c(=O)n(C)c(=O)n3Cc2ccc(F)c(F)c2)cc1` [Compound 10g, 3-(4-(2-(Diethylamino)ethoxy)phenyl)-8-(3,4-difluorobenzyl)-6-methylpyrimido[5,4-e][1,2,4]triazine-5,7(6H,8H)-dione], the “pharmacokinetic properties as assessed by peak plasma level and half-life” value is on record as “favorable pharmacokinetic properties”.

For a further data set, the system named is β-catenin/TCF complex. Kind of data set: cells. In kind it is cell-based. Particulars: Rattus norvegicus; IEC18-S33Y cells, 17-20 h with compound, β-catenin-dependent firefly luciferase with Renilla control; read-out: IC50.
`CCN(CC)CCOc1ccc(-c2nnc3c(n2)c(=O)n(C)c(=O)n3Cc2ccc(F)c(F)c2)cc1` [Compound 10g, 3-(4-(2-(Diethylamino)ethoxy)phenyl)-8-(3,4-difluorobenzyl)-6-methylpyrimido[5,4-e][1,2,4]triazine-5,7(6H,8H)-dione]: the half-inhibitory concentration (IC50) is 700 ± 130 nM.
